Active and inactive are the calls of the source. The rule behind the calls is not given here.

Drawing on PubChem BioAssay AID1259407 (Chemical Carcinogenesis Research Information System (CCRIS), 2018), this text covers mutagenic call for seven molecules.

In this data set the test system is CCRIS mutagenicity, Ames/micronucleus/aberration tests. Description: CCRIS mutagenicity studies.
Setting [1] is: Test System: AMES SALMONELLA TYPHIMURIUM, Strain/Indicator: TA98, Metabolic Activation: NONE, Method: STANDARD PLATE.
Where [2] appears, read: Test System: AMES SALMONELLA TYPHIMURIUM, Strain/Indicator: TA98, Metabolic Activation: RAT, LIVER, S-9, AROCLOR 1254, Method: STANDARD PLATE.
[3] abbreviates: Test System: AMES SALMONELLA TYPHIMURIUM, Strain/Indicator: TA100, Metabolic Activation: NONE, Method: STANDARD PLATE.
Where [4] appears, read: Test System: AMES SALMONELLA TYPHIMURIUM, Strain/Indicator: TA100, Metabolic Activation: RAT, LIVER, S-9, AROCLOR 1254, Method: STANDARD PLATE.
Where [5] appears, read: Test System: AMES SALMONELLA TYPHIMURIUM, Strain/Indicator: TA1535, Metabolic Activation: NONE, Method: STANDARD PLATE.
[6] abbreviates: Test System: AMES SALMONELLA TYPHIMURIUM, Strain/Indicator: TA1535, Metabolic Activation: RAT, LIVER, S-9, AROCLOR 1254, Method: STANDARD PLATE.
Setting [7] is: Test System: AMES SALMONELLA TYPHIMURIUM, Strain/Indicator: TA1537, Metabolic Activation: NONE, Method: STANDARD PLATE.
Setting [8] is: Test System: AMES SALMONELLA TYPHIMURIUM, Strain/Indicator: TA1538, Metabolic Activation: NONE, Method: STANDARD PLATE.
[9] abbreviates: Test System: AMES SALMONELLA TYPHIMURIUM, Strain/Indicator: TA1538, Metabolic Activation: RAT, LIVER, S-9, AROCLOR 1254, Method: STANDARD PLATE.
Where [10] appears, read: End Point: IN VITRO CHROMOSOMAL ABERRATIONS, Test System: CHO CELLS, Metabolic Activation: NONE.
Where [11] appears, read: Test System: AMES SALMONELLA TYPHIMURIUM, Strain/Indicator: TA100, Metabolic Activation: NONE, Method: PREINCUBATION

Take `Nc1cccc2c1C(=O)c1cccc(N)c1C2=O`: the mutagenic call reads like this: under setting [1], “inactive; negative”; under setting [2], “active; positive”; under setting [3], “inactive; negative”; under setting [4], “inactive; negative”; under setting [5], “inactive; negative”; under setting [6], “inactive; negative”. Moreover, the mutagenic call reads like this: under setting [7], “inactive; negative”; under setting [8], “inactive; negative”; under setting [9], “active; positive”.

Turning to `CCC(C)Nc1snc2ccccc12` (stereo unspecified), the mutagenic call runs as follows: under setting [1], “inactive; negative”; (Test System: AMES SALMONELLA TYPHIMURIUM, Strain/Indicator: TA98, Metabolic Activation: S-9, Method: STANDARD PLATE) “inactive; negative”; under setting [3], “inactive; negative”; (Test System: AMES SALMONELLA TYPHIMURIUM, Strain/Indicator: TA100, Metabolic Activation: S-9, Method: STANDARD PLATE) “inactive; negative”; under setting [5], “inactive; negative”; (Test System: AMES SALMONELLA TYPHIMURIUM, Strain/Indicator: TA1535, Metabolic Activation: S-9, Method: STANDARD PLATE) “inactive; negative”. Moreover, the mutagenic call under setting [7] was “inactive; negative” and the mutagenic call (Test System: AMES SALMONELLA TYPHIMURIUM, Strain/Indicator: TA1537, Metabolic Activation: S-9, Method: STANDARD PLATE) was “inactive; negative”.

With `NS(=O)(=O)c1cc2c(cc1Cl)NCNS2(=O)=O`, the mutagenic call reads like this: (End Point: IN VITRO CHROMOSOMAL ABERRATIONS, Test System: CHINESE HAMSTER OVARY CELLS, Metabolic Activation: NONE) “inactive; negative”; (End Point: IN VITRO CHROMOSOMAL ABERRATIONS, Test System: CHINESE HAMSTER OVARY CELLS, Metabolic Activation: RAT, LIVER, S-9, AROCLOR 1254) “inactive; negative”; under setting [10], “inactive; negative”; (End Point: IN VITRO CHROMOSOMAL ABERRATIONS, Test System: CHO CELLS, Metabolic Activation: RAT, LIVER, S-9, AROCLOR 1254) “inactive; negative”; (Test System: AMES SALMONELLA TYPHIMURIUM, Strain/Indicator: TA98, Metabolic Activation: HAMSTER, LIVER, S-9, AROCLOR 1254, Method: PREINCUBATION) “inactive; negative”; (Test System: AMES SALMONELLA TYPHIMURIUM, Strain/Indicator: TA98, Metabolic Activation: RAT, LIVER, S-9, AROCLOR 1254, Method: PREINCUBATION) “inactive; negative”. Besides, the mutagenic call is “inactive; negative” (Test System: AMES SALMONELLA TYPHIMURIUM, Strain/Indicator: TA100, Metabolic Activation: HAMSTER, LIVER, S-9, AROCLOR 1254, Method: PREINCUBATION); “inactive; negative” under setting [11]; “inactive; negative” (Test System: AMES SALMONELLA TYPHIMURIUM, Strain/Indicator: TA100, Metabolic Activation: RAT, LIVER, S-9, AROCLOR 1254, Method: PREINCUBATION); “inactive; negative” (Test System: AMES SALMONELLA TYPHIMURIUM, Strain/Indicator: TA1535, Metabolic Activation: HAMSTER, LIVER, S-9, AROCLOR 1254, Method: PREINCUBATION); “inactive; negative” (Test System: AMES SALMONELLA TYPHIMURIUM, Strain/Indicator: TA1535, Metabolic Activation: NONE, Method: PREINCUBATION); “inactive; negative” (Test System: AMES SALMONELLA TYPHIMURIUM, Strain/Indicator: TA1535, Metabolic Activation: RAT, LIVER, S-9, AROCLOR 1254, Method: PREINCUBATION). The mutagenic call is “inactive; negative” (Test System: AMES SALMONELLA TYPHIMURIUM, Strain/Indicator: TA1537, Metabolic Activation: HAMSTER, LIVER, S-9, AROCLOR 1254, Method: PREINCUBATION); “inactive; negative” (Test System: AMES SALMONELLA TYPHIMURIUM, Strain/Indicator: TA1537, Metabolic Activation: RAT, LIVER, S-9, AROCLOR 1254, Method: PREINCUBATION); “active; positive” (Test System: MOUSE LYMPHOMA, Strain/Indicator: L5178Y (TK+/TK-), Metabolic Activation: NONE, Method: SUSPENSION/PLATE).

Turning to `O=Cc1cn([C@@H]2O[C@H](CO)[C@@H](O)[C@H]2O)c(=O)[nH]c1=O`, the mutagenic call (Test System: CHINESE HAMSTER V-79, Strain/Indicator: V-79 (HPRT)/6-THIOGUANINE, Metabolic Activation: NONE, Method: STANDARD PLATE) is “inactive; negative”.

For `Cc1cc(O)c2c(c1)C(=O)c1cccc(O)c1C2=O`, the mutagenic call (End Point: IN VITRO CHROMOSOMAL ABERRATIONS, Test System: CHO CELLS, Metabolic Activation: MALE WISTAR RAT, LIVER, S-9) was “inactive; negative; tested to limit of solubility”; the mutagenic call under setting [10] is “inactive; negative; tested to limit of solubility”; the mutagenic call (Test System: AMES SALMONELLA TYPHIMURIUM, Strain/Indicator: TA98, Metabolic Activation: NONE, Method: PREINCUBATION) is “inactive; negative”; the mutagenic call under setting [1] was “inactive; negative”; the mutagenic call under setting [2] is “inactive; negative”; the mutagenic call (Test System: AMES SALMONELLA TYPHIMURIUM, Strain/Indicator: TA98, Metabolic Activation: RAT, LIVER, S-9, PCB, Method: PREINCUBATION) is “inactive; negative”. Further, the mutagenic call under setting [11] was “inactive; negative”; the mutagenic call under setting [3] was “inactive; negative”; the mutagenic call under setting [4] is “inactive; negative”; the mutagenic call (Test System: AMES SALMONELLA TYPHIMURIUM, Strain/Indicator: TA100, Metabolic Activation: RAT, LIVER, S-9, PCB, Method: PREINCUBATION) was “inactive; negative”; the mutagenic call (Test System: AMES SALMONELLA TYPHIMURIUM, Strain/Indicator: TA102, Metabolic Activation: NONE, Method: PREINCUBATION) was “active; positive”; the mutagenic call (Test System: AMES SALMONELLA TYPHIMURIUM, Strain/Indicator: TA102, Metabolic Activation: RAT, LIVER, S-9, Method: PREINCUBATION) was “active; positive”. Further, the mutagenic call is “inactive; negative” under setting [5]; “inactive; negative” under setting [6]; “active; positive” (Test System: AMES SALMONELLA TYPHIMURIUM, Strain/Indicator: TA1537, Metabolic Activation: RAT, LIVER, S-9, AROCLOR 1254, Method: STANDARD PLATE); “active; positive” (Test System: AMES SALMONELLA TYPHIMURIUM, Strain/Indicator: TA1537, Metabolic Activation: RAT, LIVER, S-9, Method: PREINCUBATION); “inactive; negative” under setting [8]; “inactive; negative” under setting [9].

As to `S=C=NCCc1ccccc1`, the mutagenic call is “inactive; negative” under setting [1]; “active; positive” (Test System: AMES SALMONELLA TYPHIMURIUM, Strain/Indicator: TA98, Metabolic Activation: RAT LIVER S-9, AROCLOR 1254, Method: STANDARD PLATE); “inactive; negative” under setting [3]; “inactive; negative” (Test System: AMES SALMONELLA TYPHIMURIUM, Strain/Indicator: TA100, Metabolic Activation: RAT LIVER S-9, AROCLOR 1254, Method: STANDARD PLATE).

On to `O=C1C=Cc2ccc3c4c(ccc1c24)C(=O)C=C3`, for which the mutagenic call by setting is: (Test System: AMES SALMONELLA TYPHIMURIUM, Strain/Indicator: TA97, Metabolic Activation: NONE, Method: STANDARD PLATE) “active; positive”; (Test System: AMES SALMONELLA TYPHIMURIUM, Strain/Indicator: TA97, Metabolic Activation: RAT, LIVER, S-9, PCB, Method: STANDARD PLATE) “active; positive”; under setting [1], “inactive; negative”; (Test System: AMES SALMONELLA TYPHIMURIUM, Strain/Indicator: TA98, Metabolic Activation: RAT, LIVER, S-9, PCB, Method: STANDARD PLATE) “inactive; negative”; under setting [3], “inactive; negative”; (Test System: AMES SALMONELLA TYPHIMURIUM, Strain/Indicator: TA100, Metabolic Activation: RAT, LIVER, S-9, PCB, Method: STANDARD PLATE) “inactive; negative”.
